# Source: the supplement of paper PMC6965134
# Experiment: TIMS collisional cross section (CCS, N2) of the lipid ion; higher = larger ion cross section
# Conditions: ionization mode: negative, one isomer drawn
# Protocol: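 Lipid extracts of human plasma (NIST SRM 1950), mouse liver or HeLa cells were separated by nanoflow C18 LC (30 min gradient) and analysed by TIMS-PASEF on a timsTOF Pro. Ion mobility was calibrated with the Agilent tuning mix (negative mode ions) and converted to collisional cross sections (Mason–Schamp, N2).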
# [1] = sample type: Mouse Liver, ion (formula + adduct): [C44H76NO10P-H] 1-
# [2] = sample type: Mouse Liver, ion (formula + adduct): [C44H74NO10P-H] 1-
# 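Note: lipids from MTBE extraction, five replicate injections per sample, 100 ms TIMS ramp spanning 0.6–1.95 Vs/cm², lipid identity assigned from PASEF MS/MS spectra.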
structure (smiles),measurement,setting,value
CCCCC/C=C\C/C=C\C/C=C\C/C=C\CCCC(=O)OC[C@H](COP(=O)(O)OC[C@H](N)C(=O)O)OC(=O)CCCCCCCCCCCCCCC [PS 20:4_16:0],TIMS collisional cross section,"sample type: Mouse Liver, ion (formula + adduct): [C42H74NO10P-H] 1-",280.1 Å²
CCCCC/C=C\C/C=C\C/C=C\C/C=C\CCCC(=O)OC[C@H](COP(=O)(O)OC[C@H](N)C(=O)O)OC(=O)CCCCCCC/C=C\CCCCCCCC [PS 20:4_18:1],TIMS collisional cross section,[1],284.6 Å²
CCCCC/C=C\C/C=C\C/C=C\C/C=C\CCCC(=O)OC[C@H](COP(=O)(O)OC[C@H](N)C(=O)O)OC(=O)CCCCCCC/C=C\C/C=C\CCCCC [PS 20:4_18:2@],TIMS collisional cross section,[2],286.4 Å²
CCCCC/C=C\C/C=C\C/C=C\C/C=C\CCCC(=O)OC[C@H](COP(=O)(O)OC[C@H](N)C(=O)O)OC(=O)CCC/C=C\C/C=C\C/C=C\C/C=C\CCCCC [PS 20:4_20:4],TIMS collisional cross section,"sample type: Mouse Liver, ion (formula + adduct): [C46H74NO10P-H] 1-",287.4 Å²
CC/C=C\C/C=C\C/C=C\C/C=C\C/C=C\CCCC(=O)OC[C@H](COP(=O)(O)OC[C@H](N)C(=O)O)OC(=O)CCCCCCCCCCCCCCC [PS 20:5_16:0],TIMS collisional cross section,"sample type: Mouse Liver, ion (formula + adduct): [C42H72NO10P-H] 1-",279 Å²
CC/C=C\C/C=C\C/C=C\C/C=C\C/C=C\CCCC(=O)OC[C@H](COP(=O)(O)OC[C@H](N)C(=O)O)OC(=O)CCCCCCCCCCCCCCCCC [PS 20:5_18:0],TIMS collisional cross section,[1],284.6 Å²
CCCCC/C=C\C/C=C\C/C=C\C/C=C\CCCCCC(=O)OC[C@H](COP(=O)(O)OC[C@H](N)C(=O)O)OC(=O)CCCCCCCCCCCCCCC [PS 22:4@_16:0],TIMS collisional cross section,"sample type: Mouse Liver, ion (formula + adduct): [C44H78NO10P-H] 1-",288.7 Å²
CCCCC/C=C\C/C=C\C/C=C\C/C=C\CCCCCC(=O)OC[C@H](COP(=O)(O)OC[C@H](N)C(=O)O)OC(=O)CCCCCCCCCCCCCCCCC [PS 22:4_18:0],TIMS collisional cross section,"sample type: Mouse Liver, ion (formula + adduct): [C46H82NO10P-H] 1-",291.4 Å²
CC/C=C\C/C=C\C/C=C\C/C=C\C/C=C\C/C=C\CCC(=O)OC[C@H](COP(=O)(O)OC[C@H](N)C(=O)O)OC(=O)CCCCCCCCCCCCCCC [PS 22:6_16:0],TIMS collisional cross section,[2],283.5 Å²
CC/C=C\C/C=C\C/C=C\C/C=C\C/C=C\C/C=C\CCC(=O)OC[C@H](COP(=O)(O)OC[C@H](N)C(=O)O)OC(=O)CCCCCCCCCCCCCCCCC [PS 22:6_18:0],TIMS collisional cross section,"sample type: Mouse Liver, ion (formula + adduct): [C46H78NO10P-H] 1-",289.7 Å²
CCCCCCCC/C=C\CCCCCCCC(=O)N[C@@H](COP(=O)([O-])OCC[N+](C)(C)C)[C@H](O)/C=C/CCCCCCCCCCC [SM d16:1_18:1@],TIMS collisional cross section,"sample type: Human plasma, ion (formula + adduct): [C39H77N2O6P+HCOO] 1-",285 Å²
CCCCCCCCCCCCC/C=C/[C@@H](O)[C@H](COP(=O)([O-])OCC[N+](C)(C)C)NC(=O)CCCCCCCCCCCCC [SM d18:1_14:0@],TIMS collisional cross section,"sample type: Human plasma, ion (formula + adduct): [C37H75N2O6P+HCOO] 1-",280.6 Å²
